The source of these data is EP4656630A1, “NOVEL COMPOUND AS LYSYL-TRNA SYNTHETASE 1 INHIBITOR, AND USE THEREOF” (Zymedi Co., Ltd., priority 2023, dated 2024).

One assay relates to Raw 264.7 cells. The experiment in a line: LN (Laminin 421)-induced immune cell migration, Transwell. In kind it is cell-based. Conditions: Mus musculus, RAW264.7; 3 µM compound, LN (Laminin 421 1 µg/ml), 24 hours, % inhibition compared to control group; read-out: Migration inhibitor % (3uM). How it is done:
Cell migration was assessed based on the method described in the prior literature (Park, S. G. et al. Human lysyl-tRNA synthetase is secreted to trigger proinflammatory response. Proceedings of the National Academy of Sciences, 2005, 102.18: 6356-6361.). The specific experimental method is as follows. A Transwell (Corning#3421-5µm pore) was coated with gelatin (0.5mg/ml), and then Raw 264.7 cells (1 x 10^5 cells/well) were seeded in the upper chamber. Serum-free medium (Serum Free DMEM, 500 µl) containing LN (Laminin 421 1 µg/ml) was added to the lower chamber. Each compound was treated at a concentration of 3µM in the upper chamber. After 24 hours, the cells were fixed with 70% methanol for 30 minutes and stained with 50% hematoxylin for 30 minutes. Non-migrating cells on the upper side of the membrane were removed with a cotton swab, and the membrane was mounted on a slide. Migrating cells on the lower side of the membrane were observed under a high-power microscope, and the number of cells was measured from the obtained images and expressed as the inhibition rate (% inhibition) compared to the control group.

Another assay relates to Raw264.7 cells. The assay can be described thus: KARS1-induced trans-migration assay. Format: cell-based, mouse. The following applies: for inhibition at 1 µM: 1 µM compound, read-out: KARS1-induced Raw264.7 cell migration (% inhibition, 1uM). How it is done:
C0001 inhibits the binding of KARS1 and 67LR, thereby blocking the migration of monocytes/macrophages and suppressing inflammation. Accordingly, a trans-migration assay using mouse macrophages (Raw264.7) was conducted to preliminarily screen drugs that inhibit the migration of monocytes/macrophages.
Based on this, when KARS1 protein was directly treated externally instead of LN, the trans-migration of Raw264.7 was induced, and the cell migration inhibitory effect of the KARS1 inhibitor C0001 was confirmed. It was verified that C0001, which specifically binds to KARS1, can inhibit cell migration by binding to extracellular KARS1, in addition to the mechanism of inhibiting cell membrane migration of KARS1 induced by laminin and its binding to 67LR, thereby enabling this analysis to be used as a direct method for evaluating in vitro activity against KARS1.
Next, preliminary candidate substances with high inhibitory activity at 1 µM were treated at concentrations of 0.1~4 µM for analysis.

The next assay deals with T1, KARS1 and 37LR (Homo sapiens, UniProt Q15046).
T1 construct: KARS1 (1-207aa)
The assay can be described thus: Cell-free ELISA of KARS1 and 37LR (laminin receptor) binding. The following applies: 10 µM compound, 1 hour, plate coated with KARS1 (1-207aa), LRF. Here is the method: Next, based on the mechanism of action, a cell-free ELISA analysis was conducted to select compounds with high inhibitory activity on the binding of KARS1 and LR (laminin receptor).
(In general: In an ELISA, binding on a coated surface is turned into a signal by an enzyme label.)

SMILES strings stand for the structures.

T1 sequence (Q15046 1-207): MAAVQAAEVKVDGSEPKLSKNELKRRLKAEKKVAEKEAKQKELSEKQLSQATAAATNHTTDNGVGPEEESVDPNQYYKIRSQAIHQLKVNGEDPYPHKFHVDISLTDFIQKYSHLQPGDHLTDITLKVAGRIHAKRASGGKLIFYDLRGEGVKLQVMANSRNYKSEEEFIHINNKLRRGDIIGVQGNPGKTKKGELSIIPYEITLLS

Turning to `COc1ccc(CCN(Cc2ccc(N3CC[C@@H](C(=O)O)C3)cc2)c2nc3cccc(F)c3s2)cc1` [Compound 24, (R)-1-(4-(((7-fluorobenzo[d]thiazol-2-yl)(4-methoxyphenethyl)-amino)methyl)phenyl)pyrrolidine-3-carboxylic acid], the inhibition at 3 µM with Raw 264.7 cells was 68%. Further, the inhibition at 1 µM in the assay on Raw264.7 cells (Mus musculus, RAW264.7) stood at 96.3%. Moreover, the inhibition at 10 µM at KARS1 and 37LR was found to be 65.9%.

Regarding `COc1ccc(CCN(Cc2ccc(-n3ccc(C(=O)O)c3)cc2)c2nc3cccc(F)c3s2)cc1` [Compound 34, 1-(4-(((7-fluorobenzo[d]thiazol-2-yl)(4-methoxyphenethyl)amino)-methyl)phenyl)-1H-pyrrole-3-carboxylic acid], the inhibition at 3 µM in the assay with Raw 264.7 cells turned out to be 13%. Also, in the assay on Raw264.7 cells (Mus musculus, RAW264.7), the inhibition at 1 µM was 99.4%.

As to `COc1ccc(CCN(Cc2ccc(N3CCC[C@H]3C(=O)O)cc2)c2nc3cccc(F)c3s2)cc1` [Compound 19, (4-(((7-fluorobenzo[d]thiazol-2-yl)(4-methoxyphenethyl)amino)-methyl)phenyl)-L-proline], in the assay with Raw 264.7 cells, the inhibition at 3 µM is 15%. Besides, the inhibition at 1 µM in the assay on Raw264.7 cells (Mus musculus, RAW264.7) is 69%. Besides, the inhibition at 10 µM at KARS1 and 37LR stood at 75.8%.

Turning to `COc1ccc(CCN(Cc2ccc(C(=O)N3CCC[C@H]3C(=O)O)cc2)c2nc3cccc(F)c3s2)cc1` [Compound 14, (4-(((7-fluorobenzo[d]thiazol-2-yl)(4-methoxyphenethyl)amino)-methyl)benzoyl)-L-proline], in the assay with Raw 264.7 cells, the inhibition at 3 µM stood at 32%. Besides, in the assay on Raw264.7 cells (Mus musculus, RAW264.7), the inhibition at 1 µM was found to be 73.4%. Also, at KARS1 and 37LR, the inhibition at 10 µM is 100%.

For the compound `COc1ccc(CCN(Cc2ccc(N3CC[C@H](C(=O)O)C3)cc2)c2nc3ccccc3o2)cc1` [Compound 38, (S)-1-(4-((benzo[d]oxazol-2-yl(4-methoxyphenethyl)amino)methyl)-phenyl)pyrrolidine-3-carboxylic acid], the inhibition at 3 µM in the assay on Raw 264.7 cells was 15.3%. Besides, the inhibition at 1 µM in the assay on Raw264.7 cells (Mus musculus, RAW264.7) is 40.4%.

With `COc1ccc(CCN(Cc2ccc(CCC(=O)O)cc2)c2nc3cccc(F)c3s2)cc1` [Compound 2, 3-(4-(((7-fluorobenzo[d]thiazol-2-yl)(4-methoxyphenethyl)amino)-methyl)phenyl)propanoic acid], the inhibition at 3 µM in the assay with Raw 264.7 cells worked out at 15.7%. Further, the inhibition at 1 µM in the assay with Raw264.7 cells (Mus musculus, RAW264.7) was determined as 98.1%. The inhibition at 10 µM at KARS1 and 37LR worked out at 79.4%.

As for `COc1ccc(CCN(Cc2ccc(C#CC(N)=O)cc2)c2nc3cccc(F)c3s2)cc1` [Compound 5, 3-(4-(((7-fluorobenzo[d]thiazol-2-yl)(4-methoxyphenethyl)amino)-methyl)phenyl)propiolamide], the inhibition at 3 µM in the assay with Raw 264.7 cells is 77.7%. In addition, in the assay on Raw264.7 cells (Mus musculus, RAW264.7), the inhibition at 1 µM stood at 95.6%. In addition, the inhibition at 10 µM at KARS1 and 37LR was 0.8%.

For `COc1ccc(CCN(Cc2ccc3c(c2)CNC3)c2nc3cccc(F)c3s2)cc1` [Compound 29, 7-fluoro-N-(isoindolin-5-ylmethyl)-N-(4-methoxyphenethyl)benzo-[d]thiazol-2-amine], the inhibition at 3 µM with Raw 264.7 cells was 33%. Also, the inhibition at 1 µM in the assay on Raw264.7 cells (Mus musculus, RAW264.7) was determined as 4.1%.

Consider `C#Cc1cccc(CN(CCc2ccc(OC)cc2)c2nc3cccc(F)c3s2)c1` [Compound 9, N-(3-ethynylbenzyl)-7-fluoro-N-(4-methoxyphenethyl)benzo[d]thiazol-2-amine], for which the inhibition at 3 µM with Raw 264.7 cells turned out to be 0%. Moreover, the inhibition at 10 µM at KARS1 and 37LR is 8.5%.

Turning to `COc1ccc(CCN(Cc2cccc(N3CCC[C@H]3C(=O)O)c2)c2nc3cccc(F)c3s2)cc1` [Compound 20, (3-(((7-fluorobenzo[d]thiazol-2-yl)(4-methoxyphenethyl)amino)-methyl)phenyl)-L-proline], in the assay with Raw 264.7 cells, the inhibition at 3 µM amounted to 18%. In the assay with Raw264.7 cells (Mus musculus, RAW264.7), the inhibition at 1 µM was found to be 49.1%. For the same compound, at KARS1 and 37LR, the inhibition at 10 µM was 3.4%.

On to `COc1ccc(CCN(Cc2ccc(C#CC(=O)O)cc2)c2ncc3ccn(C)c3n2)cc1` [Compound 12, 3-(4-(((4-methoxyphenethyl)(7-methyl-7H-pyrrolo[2,3-d]pyrimidin-2-yl)amino)methyl)phenyl)propiolic acid], for which, in the assay with Raw 264.7 cells, the inhibition at 3 µM is 43%. Further, the inhibition at 1 µM in the assay with Raw264.7 cells (Mus musculus, RAW264.7) was 55.1%. In addition, the inhibition at 10 µM at KARS1 and 37LR was determined as 57.9%.

Regarding `COc1ccc(CCN(Cc2ccc(-c3ccccc3)cc2)c2nc3cccnc3s2)cc1` [Compound 1, N-([1,1'-biphenyl]-4-ylmethyl)-N-(4-methoxyphenethyl)thiazolo[5,4-b]pyridin-2-amine], the inhibition at 3 µM in the assay with Raw 264.7 cells came out at 8.8%. Besides, in the assay on Raw264.7 cells (Mus musculus, RAW264.7), the inhibition at 1 µM stood at 19.8%. For the same compound, the inhibition at 10 µM on KARS1 and 37LR was -6%.

Turning to `COc1ccc(CCN(Cc2ccc(C#CC(=O)O)cc2)c2nc3ccc(=O)[nH]c3s2)cc1` [Compound 45, 3-(4-(((4-methoxyphenethyl)(5-oxo-4,5-dihydrothiazolo[5,4-b]pyridin-2-yl)amino)methyl)phenyl)propiolic acid], in the assay with Raw 264.7 cells, the inhibition at 3 µM is 7.8%. In addition, in the assay with Raw264.7 cells (Mus musculus, RAW264.7), the inhibition at 1 µM was 39.8%.

`COc1ccc(CCN(Cc2ccc3c(c2)CN(S(N)(=O)=O)C3)c2nc3cccc(F)c3s2)cc1` [Compound 31, 5-(((7-fluorobenzo[d]thiazol-2-yl)(4-methoxyphenethyl)amino)-methyl)isoindoline-2-sulfonamide]: in the assay on Raw 264.7 cells, the inhibition at 3 µM turned out to be 72.8%. In addition, the inhibition at 1 µM in the assay on Raw264.7 cells (Mus musculus, RAW264.7) was found to be 28.3%.

On to `COc1ccc(CCN(Cc2ccc(N3CC[C@@H](C(=O)O)C3)cc2)c2nc3ccccc3o2)cc1` [Compound 37, (R)-1-(4-((benzo[d]oxazol-2-yl(4-methoxyphenethyl)amino)methyl)-phenyl)pyrrolidine-3-carboxylic acid], for which the inhibition at 3 µM in the assay on Raw 264.7 cells was determined as 19.3%. Besides, the inhibition at 1 µM with Raw264.7 cells (Mus musculus, RAW264.7) is 50.6%.

In the case of `COc1ccc(CCN(Cc2ccc(C3(C(=O)O)CCC3)cc2)c2nc3cccc(F)c3s2)cc1` [Compound 36, 1-(4-(((7-fluorobenzo[d]thiazol-2-yl)(4-methoxyphenethyl)amino)-methyl)phenyl)cyclobutane-1-carboxylic acid], the inhibition at 3 µM in the assay with Raw 264.7 cells came to 21.8%. The inhibition at 1 µM in the assay with Raw264.7 cells (Mus musculus, RAW264.7) is 96.8%.

For `O=C(O)[C@H]1CCN(c2ccc(CN(CCn3ccccc3=O)c3nc4cccc(F)c4s3)cc2)C1` [Compound 49, (S)-1-(4-(((7-fluorobenzo[d]thiazol-2-yl)(2-(2-oxopyridin-1(2H)-yl)ethyl)amino)methyl)phenyl)pyrrolidine-3-carboxylic acid], the inhibition at 1 µM in the assay with Raw264.7 cells (Mus musculus, RAW264.7) worked out at 34.8%.

Turning to `COc1ccc(CCN(Cc2ccc(N3CCC(C(=O)O)CC3)cc2)c2nc3cccc(F)c3s2)cc1` [Compound 46, 1-(4-(((7-fluorobenzo[d]thiazol-2-yl)(4-methoxyphenethyl)amino)-methyl)phenyl)piperidine-4-carboxylic acid], the inhibition at 1 µM in the assay on Raw264.7 cells (Mus musculus, RAW264.7) is 90.9%.

Regarding `COc1ccc(CCN(Cc2cccc(C#C[Si](C)(C)C)c2)c2nc3cccc(F)c3s2)cc1` [Compound 8, 7-fluoro-N-(4-methoxyphenethyl)-N-(3-((trimethylsilyl)ethynyl)-benzyl)benzo[d]thiazol-2-amine], the inhibition at 3 µM in the assay with Raw 264.7 cells worked out at 27%. In addition, the inhibition at 10 µM on KARS1 and 37LR was found to be 13.4%.

For the compound `COc1ccc(CCN(Cc2ccc(C#CC(=O)O)cc2)c2nc3cccnc3o2)cc1` [Compound 44, 3-(4-(((4-methoxyphenethyl)(oxazolo[5,4-b]pyridin-2-yl)amino)-methyl)phenyl)propiolic acid], the inhibition at 3 µM with Raw 264.7 cells is 1.1%.

Turning to `COc1ccc(CCN(Cc2ccc(-n3cc(C(=O)O)cn3)cc2)c2nc3cccc(F)c3s2)cc1` [Compound 47, 1-(4-(((7-fluorobenzo[d]thiazol-2-yl)(4-methoxyphenethyl)amino)-methyl)phenyl)-1H-pyrazole-4-carboxylic acid], the “times higher activity compared to C0001” value in the assay on Raw264.7 cells (EC50, KARS1-induced cell migration) was “approximately 10 times”. Moreover, the inhibition at 1 µM in the assay with Raw264.7 cells (Mus musculus, RAW264.7) was found to be 99.7%. Also, the midpoint of the response with Raw264.7 cells (Mus musculus, RAW264.7, KARS1-induced cell migration, 0.1~4 µM), the EC50, lay at 80 nM.

As for `NC(=O)c1ccc(CCN(Cc2ccc(N3CC[C@H](C(=O)O)C3)cc2)c2nc3cccc(F)c3s2)cc1` [Compound 48, (S)-1-(4-(((4-carbamoylphenethyl)(7-fluorobenzo[d]thiazol-2-yl)amino)methyl)phenyl)pyrrolidine-3-carboxylic acid], the inhibition at 1 µM in the assay with Raw264.7 cells (Mus musculus, RAW264.7) worked out at 36.6%.

With `COc1ccc(CCN(Cc2nc3cc(C(=O)O)ccc3o2)c2nc3cccc(F)c3s2)cc1` [Compound 28, 2-(((7-fluorobenzo[d]thiazol-2-yl)(4-methoxyphenethyl)amino)-methyl)benzo[d]oxazole-5-carboxylic acid], in the assay on Raw 264.7 cells, the inhibition at 3 µM was 16.4%. Further, the inhibition at 1 µM in the assay with Raw264.7 cells (Mus musculus, RAW264.7) is 43.2%.
